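Following 48 hours of exposure in 96-well plates, responses at five concentrations were used to interpolate endpoints linearly. GI50: concentration for 50% inhibition of growth.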 The source made the active and inactive calls. Rule as the data show it: active = GI50 up to about 1.1 µM and inactive = higher. Starred links: 1 amine or outer side, 2 acyl side, 3 side chain; linkers in the order of their positions; H or OH if unused. Positions of bridges follow the written chain, without caps; N, C: chain ends. Non-standard residues stand in square brackets, D forms with d. Residues, ends and D or L forms follow the SMILES beside them. Chains are numbered I, II in the order given. Actinocin(1to9) = Cc1c2oc3c(C)ccc(C(=O)[*:2])c3nc-2c(C(=O)[*:1])c(N)c1=O; aThr = C[C@H](O)[C@H](N)C(=O)O; NMeV = CN[C@H](C(=O)O)C(C)C; Sar = CNCC(=O)O
Experiments:
Assay in all cases: NCI anticancer screen, dose series, 48 h
[1] = tested on: DLD-1
[2] = tested on: KM-20L2
[3] = tested on: DMS-114
[4] = tested on: SNB-78
[5] = tested on: XF498
[6] = tested on: HOP-18
[7] = tested on: M19-MEL
[8] = tested on: RXF 631
[9] = tested on: LXFL 529

Row | Structure (SMILES) | GI50 [1] | GI50 [2] | GI50 [3] | GI50 [4] | GI50 [5] | GI50 [6] | GI50 [7] | GI50 [8] | GI50 [9]
1 | CCOC(=O)c1c(C)c2c(n1C)CCc1c[nH]nc1-2 | > 100 µM (inactive) | > 100 µM (inactive) | > 100 µM (inactive) | > 100 µM (inactive) | > 100 µM (inactive) | > 100 µM (inactive) | > 100 µM (inactive) |  | 
2 | CCOC(=O)c1cnc2sc3ccc4ccccc4c3n2c1=O | > 100 µM (inactive) | 72.1 µM (inactive) | 71.6 µM (inactive) | > 100 µM (inactive) |  | > 100 µM (inactive) | > 100 µM (inactive) | 64.6 µM (inactive) | 55.2 µM (inactive)
3 | CC(C)CCS(=O)(=O)OCCCCOS(=O)(=O)CCC(C)C | > 100 µM (inactive) | > 100 µM (inactive) | > 100 µM (inactive) | > 100 µM (inactive) |  |  | > 100 µM (inactive) |  | > 100 µM (inactive)
4 | COc1ccc(Oc2ccccc2N)cc1 | 30 µM (inactive) | 27.6 µM (inactive) | 37.2 µM (inactive) | > 100 µM (inactive) |  | > 100 µM (inactive) | 50.2 µM (inactive) | > 100 µM (inactive) | 10.4 µM (inactive)
5 | NNC(=O)/C(NC(=O)c1ccccc1)=C(\N)c1ccc(Cl)cc1 | > 100 µM (inactive) | > 100 µM (inactive) | > 100 µM (inactive) | > 100 µM (inactive) |  | > 100 µM (inactive) | > 100 µM (inactive) |  | > 100 µM (inactive)
6 | CC1CN1c1c(C(=O)/C=C/c2ccc(F)cc2)c(-c2ccccc2)nn(C)c1=O (stereo not given) | 12.8 µM (inactive) | 17.7 µM (inactive) | 15.7 µM (inactive) | 23.4 µM (inactive) | 15.3 µM (inactive) | 15.2 µM (inactive) | 14.6 µM (inactive) |  | 16.7 µM (inactive)
7 | CCC(=C(C#N)C#N)c1cc(OC)c(OC)c(OC)c1 | > 100 µM (inactive) | > 100 µM (inactive) | > 100 µM (inactive) |  | > 100 µM (inactive) | > 100 µM (inactive) | > 100 µM (inactive) |  | > 100 µM (inactive)
8 | c1ccc(C2=NOC3(c4ccccc4)SC4CCCCC4CN23)cc1 (stereo not given) | 40.5 µM (inactive) | 39.5 µM (inactive) | 15.6 µM (inactive) | 34 µM (inactive) | 52.4 µM (inactive) | 26.9 µM (inactive) | 30.5 µM (inactive) |  | 13.2 µM (inactive)
9 | COc1ccc2c(c1)[n+]([O-])c(-c1ccc(C)cc1)c(N)[n+]2[O-] | > 100 µM (inactive) | 36.1 µM (inactive) | 24.9 µM (inactive) | 70.5 µM (inactive) |  | > 100 µM (inactive) | 51.1 µM (inactive) |  | 59.6 µM (inactive)
10 | CC(C)(c1ccc(OC#N)cc1)c1ccc(OC#N)cc1 | > 56.8 µM (inactive) | > 74.6 µM (inactive) | > 41.5 µM (inactive) | > 100 µM (inactive) |  | > 100 µM (inactive) | > 82.6 µM (inactive) | > 100 µM (inactive) | > 100 µM (inactive)
11 | Cc1ccc(OC(=O)N2C/C(=C\c3ccccc3)C(=O)/C(=C/c3ccccc3)C2)cc1 | 6.84 µM (inactive) | 39.7 µM (inactive) | 15.1 µM (inactive) | 28.4 µM (inactive) | 26.2 µM (inactive) | > 46.2 µM (inactive) | 5.53 µM (inactive) | 40.7 µM (inactive) | 9.98 µM (inactive)
12 | N#CC1(C#N)C(c2ccc(C3C(C#N)(C#N)C3(C#N)C#N)cc2)C1(C#N)C#N | > 100 µM (inactive) | > 100 µM (inactive) | > 100 µM (inactive) |  |  | > 100 µM (inactive) | > 100 µM (inactive) |  | > 100 µM (inactive)
13 | CC1(C)Cc2c(C#N)c(N)c3c(c2CO1)C(=O)OC3=O |  | > 100 µM (inactive) | > 100 µM (inactive) |  | > 100 µM (inactive) | > 100 µM (inactive) | > 100 µM (inactive) |  | > 100 µM (inactive)
14 | O=C1C=C2SC3C[C@@]24CC1[N+]1=c2c4c(c(O)c4c2=C(C=N4)CC1)N3 | 2.07 µM (inactive) | 1.92 µM (inactive) | 1.39 µM (inactive) | 2.61 µM (inactive) | 1.91 µM (inactive) | 6.49 µM (inactive) | 1.9 µM (inactive) |  | 
15 | Cc1c2oc3c(C)ccc(C(=O)N[C@@H]4C(=O)N[C@H](C(C)C)C(=O)N5CCC[C@H]5C(=O)N(C)CC(=O)N(C)[C@@H](C(C)C)C(=O)O[C@H]4C)c3nc-2c(C(=O)N[C@@H]2C(=O)N[C@H](C(C)C)C(=O)N3CCC[C@H]3C(=O)N(C)CC(=O)N(C)[C@@H](C(C)C)C(=O)O[C@H]2C)c(N)c1=O (I: [aThr][dV]P[Sar][NMeV] / II: [aThr][dV]P[Sar][NMeV]; ester I:1-I:C, II:1-II:C; linker I:N-II:N via Actinocin(1to9)) | 0.00384 µM (active) | 0.00292 µM (active) | 0.00295 µM (active) | 0.0027 µM (active) | 0.000897 µM (active) | 0.00611 µM (active) | 0.00155 µM (active) |  | 
16 | Oc1cc(O)cc(/C=C/c2ccc(O)c(O)c2)c1 [PICEATANNOL] | 8.57 µM (inactive) | 23.4 µM (inactive) | 5.66 µM (inactive) | 17.9 µM (inactive) |  | 45.5 µM (inactive) | 12.2 µM (inactive) |  | 
